Test results from patent US20090317497A1, “Compositions and methods for promoting brain and cardiovascular health, preventing and treating brain and cardiovascular disorders” (priority 2007, published 2009).
Each block holds one molecule with its values, some of them ahead of it.

Key:
[1] = system: Wistar rats with stroke induced middle cerebral artery occlusion (MCAO); test: Chronic MCAO stroke study, Wistar (Example 7); assay type: in vivo; conditions: Braintone 500 mg/kg, Ginkgo 20, Aspirin 10, Losartan 1 mg/kg/day, means +/- SD, scale 0 to 5
Procedure: (§1) 96 Wistar rats and 96 SHR, weighing 250-300 g, were randomly divided into eight treatment groups respectively (see Table 14), Remembrance (Formulation A) and other comparative drugs were dissolved in distilled water and administrated orally once daily for two months (Table 14: dosage of administration).
Oral administration of Remembrance/other treatments (2 months)→MACO→Continue the corresponding treatment after MACO (1 month)→Measurements
The differentiation of […] capillaries and evaluation of morphological changes after cerebral ischemia were performed using Hematoxylin and Eosin Staining. Random slides of the rat brains were used for the staining.

[2] = system: spontaneous hypertension rats (SHR) with stroke induced middle cerebral artery occlusion (MCAO); test: Chronic MCAO stroke study, SHR (Example 7); assay type: in vivo; conditions: Braintone (500), Ginkgo 20, Aspirin 10, Losartan 1 mg/kg/day, means +/- SD, scale 0 to 5
[3] = system: apoptosis-induced nuclear DNA fragmentation in cerebral cortex; test: Apoptosis assay, TUNEL staining, Wistar (Example 7); assay type: in vivo, Wistar rats; conditions: after 1 month of MCAO, doses of Table 14
[4] = system: apoptosis-induced nuclear DNA fragmentation in cerebral cortex; test: Apoptosis assay, TUNEL staining, SHR (Example 7); assay type: in vivo; conditions: doses of Table 14
[5] = system: oxidized DNA base products; test: DNA damage, oxidized DNA base products by GC/MS, Wistar (Example 7); assay type: in vivo, Wistar rats; conditions: stroke-induced, Aspirin 10, Losartan 1 mg/kg/day
[6] = system: Spontaneous Hypertensive Rats (SHR) with MCAO; test: 2-week MCAO stroke study, SHR (Example 4); assay type: in vivo
Procedure: (§2) Wistar and SHR rats were randomly divided into four treatment groups and one sham group (see Table 7 and 8).
(§3) The morphological changes were evaluated after cerebral ischemia. The brains were dipped in M-1 Embedding Matrix for frozen sectioning, frozen in liquid nitrogen and stored at −80 deg C. The cerebral sections were then cut from the middle part of the frozen brain at 20 um. 4 to 6 sections were obtained from each brain for HE staining. HE staining of sections was performed to differentiate capillaries, after which they were covered with crystal mount. Cerebral sections were examined under the microscope and photographed.

Wistar Rats with MCAO = test: 2-week MCAO stroke study, Wistar (Example 4); assay type: in vivo
Procedure: as §2, §3

[7] = system: oxidized DNA base products; test: Evaluation of DNA damage in blood DNA by GC/MS (Example 5); assay type: in vivo, Wistar rats and SHR; conditions: Stroke + treatment, doses of Table 9; mean ± S.D.; unit not given in Table 11 (Table 10: nmol/mg DNA)
Procedure: 60 Wistar rats and 60 SHR were divided into six treatment groups separately (excluding the vehicle group). The single blinded experiment was conducted with Formulation B and other drugs being administrated once daily orally (see Table 9). After a week treatment, Wistar rats underwent a MCAO procedure to induce stroke. Treatment was continued for another week after surgery before the rats were sacrificed by decapitation. DNA extraction and DNA base damage analysis was then performed. DNA was extracted from blood samples collected from different treatment groups of Wistar rats and SHR using the phenol-chloroform method. The DNA samples were then analyzed by GC/MS.

AT2 receptor = test: RT-PCR gene expression in left cortex after MCAO: AT2 (Example 6); assay type: in vivo, Wistar rats; conditions: stroke operated groups, doses of Table 12; compared with stroke operated vehicle group (p<0.05)
Source text: (§4) The brains were collected for further gene expression studies. The cerebral left cortexes containing infarct area were separated.

Bax = test: RT-PCR gene expression in left cortex after MCAO: Bax (Example 6); assay type: in vivo, Wistar rats; conditions: stroke-operated group, doses of Table 12; compared with stroke operated vehicle group (p<0.05)
Source text: as §4

Fas = test: RT-PCR gene expression in left cortex after MCAO: Fas (Example 6); assay type: in vivo, Wistar rats; conditions: stroke-operated group, doses of Table 12; compared with stroke operated vehicle group
Source text: as §4

BcL-xL [8] = test: RT-PCR gene expression in left cortex after MCAO: BcL-xL (Example 6); assay type: in vivo, Wistar rats; conditions: stroke operated, doses of Table 12
Source text: as §4

BcL-xS [9] = test: RT-PCR gene expression in left cortex after MCAO: BcL-xS (Example 6); assay type: in vivo, Wistar rats; conditions: stroke operated, doses of Table 12; compared with stroke operated vehicle group (p<0.05)
Source text: as §4

BcL-xL [10] = test: Gene expression Bcl-xL, Wistar (Example 7); assay type: in vivo, Wistar rats; conditions: Losartan 1 mg/kg/day, compared with vehicle group (p<0.01)
Procedure: as §1
(§5) Glyceraldehydes-3-[…] dehydrogenase (GAPDH) was used as the internal standard gene. Primers sequences of GAPDH, VEGF, eNOS, ACE, AT1, AT2, Fas, Bax, Bcl-xL and Bcl-xS were used in this study.

Bcl-xS [11] = test: Gene expression Bcl-xS, SHR (Example 7); assay type: in vivo; conditions: doses of Table 14, vs Vehicle group
Procedure: as §1, §5

[12] = Inhibition of Pyrogallol Red Bleaching by Hypochlorous Acid; assay type: biochemical; conditions: 10 mg/ml; 125 uM HOCL; pH 7.4, 37 deg. C.; 542 nm
Procedure: Pyrogallol Red was dissolved in 100 mM buffer at 37 deg. C., pH 7.4, after which 125 uM HOCL was added and incubated with 10 mg/ml ascorbic acid and other select herbal extracts including two batches of Formulation B. The absorbance values of the mixtures in the presence and absence of the antioxidant were recorded by UV visible spectrophotometer at 542 nm.

Inhibition of ABTS Assay = assay type: biochemical; conditions: 10 ul of 10 mg/ml in 990 ul ABTS reagent; 2 minutes; 734 nm
[13] = MCAO, Formulation B 500 mg/kg/day, Losartan 1 mg/kg/day
[14] = MCAO, Formulation B 500 mg/kg/day, Losartan 1 mg/kg/day, day 13

SMILES: CC(=O)Oc1ccccc1C(=O)O [Aspirin]
- Neurological score, 1 day after stroke [1]: 1 ± 1.73
- Neurological score, 1 day before decapitation [1]: 2 ± 2.74
- Neurological score, 15 days after stroke [1]: 2 ± 2.45
- Neurological score, 1 day after stroke [2]: 1.72 ± 1.73
- Neurological score, 1 day before decapitation [2]: 1.54 ± 2.15
- Neurological score, 15 days after stroke [2]: 0.63 ± 1.84
- apoptosis (TUNEL staining) in cerebral cortex [3]: reduction in apoptosis
- apoptosis (TUNEL staining) in cerebral cortex [4]: reduction in apoptosis
- amount of DNA damage compared to Remembrance 500 mg group [5]: higher amount of DNA damage

SMILES: CCCCc1nc(Cl)c(CO)n1Cc1ccc(-c2ccccc2-c2nn[nH]n2)cc1 [Losartan]
- infarct volume [6, 13]: 5.22%
- mortality rate [6, 14]: 28.6%
- number of capillaries, HE staining ([6]; after MCAO): 15 capillaries
- infarct volume (Wistar Rats with MCAO; [13]): 2.41%
- mortality rate (Wistar Rats with MCAO; [14]): 0%
- number of capillaries, HE staining (Wistar Rats with MCAO; after MCAO): 22 capillaries
- 2OH Adenine [7]: 0.02 ± 0.03
- 5(OH, Me) Uracil [7]: 0.04 ± 0.03
- 5CI Uracil [7]: 0.02 ± 0.01
- 5Formyl Uracil [7]: 0.01 ± 0.01
- 5OH Cytosine [7]: 0.01 ± 0.01
- 5OH Uracil [7]: 0.01 ± 0.01
- 5OH, Me Hydantoin [7]: 0.10 ± 0.02
- 8OH Adenine [7]: 0.05 ± 0.04
- 8OH Guanine [7]: 0.13 ± 0.04
- FAPy Adenine [7]: 0.09 ± 0.03
- FAPy Guanine [7]: 0.03 ± 0.03
- Hypoxanthine [7]: 22.21 ± 8.01
- Thymine Glycol (cis) [7]: 2.20 ± 0.15
- Xanthine [7]: 1.51 ± 0.32
- AT2 expression (AT2 receptor): significantly reduced
- Bax gene expression (Bax): significant effect in down regulating
- Fas expression (Fas): no significant effect
- BcL-xL up or down regulation (BcL-xL [8]): did not have any significant effects
- BcL-xS expression (BcL-xS [9]): significantly reduced expression
- Bcl-xL expression (BcL-xL [10]): significant fold decrease
- Bcl-xS expression (Bcl-xS [11]): up-regulating effects
- amount of DNA damage compared to Remembrance 500 mg group [5]: higher amount of DNA damage

- AT2 expression (AT2 receptor): significantly reduced
SMILES: CCOC(=O)[C@H](CCc1ccccc1)N[C@@H](C)C(=O)N1[C@H](C(=O)O)C[C@@H]2CCC[C@@H]21 [Ramipril]
- 2OH Adenine [7]: 0.03 ± 0.02
- 5(OH, Me) Uracil [7]: 0.03 ± 0.00
- 5CI Uracil [7]: 0.01 ± 0.00
- 5Formyl Uracil [7]: 0.50 ± 0.03
- 5OH Cytosine [7]: 0.05 ± 0.01
- 5OH Uracil [7]: 0.06 ± 0.00
- 5OH, Me Hydantoin [7]: 0.04 ± 0.02
- 8OH Adenine [7]: 0.03 ± 0.01
- 8OH Guanine [7]: 0.13 ± 0.07
- FAPy Adenine [7]: 0.08 ± 0.03
- FAPy Guanine [7]: 0.03 ± 0.01
- Hypoxanthine [7]: 18.12 ± 11.18
- Thymine Glycol (cis) [7]: 0.68 ± 0.31
- Xanthine [7]: 2.61 ± 1.64
- Bax gene expression (Bax): significant effect in down regulating
- Fas expression (Fas): no significant effect
- BcL-xL up or down regulation (BcL-xL [8]): did not have any significant effects
- BcL-xS expression (BcL-xS [9]): significantly reduced expression

SMILES: O=C1O[C@H]([C@@H](O)CO)C(O)=C1O [ascorbic acid]
- pyrogallol red bleaching inhibition [12]: ~100%
- scavenging effect of ABTS (Inhibition of ABTS Assay): 100%
